Laboratory results as given in patent US7763657B2, “Compounds, isomer thereof, or pharmaceutically acceptable salts thereof as vanilloid receptor antagonist; and pharmaceutical compositions containing the same” (Amorepacific Corporation, priority 2005, dated 2010).

target: T1, vanilloid receptor (Rattus norvegicus, UniProt O35433); experiment: 45Ca influx test (calcium uptake) in primary cultured DRG neurons, antagonism of capsaicin; type: cell-based; conditions: neonatal SD rat DRG nerve cells; capsaicin 0.5 μM; 45Ca 10 μCi/ml; 10 mins room temperature; read-out: Antagonist Calcium Uptake Test (IC50)
T1 construct: DRG nerve cells from the primary culture of 2 days were equilibrated; endogenous in cells; host or cells: primary cultured dorsal root ganglion neurons of neonatal SD rats
T1 sequence (O35433 whole entry): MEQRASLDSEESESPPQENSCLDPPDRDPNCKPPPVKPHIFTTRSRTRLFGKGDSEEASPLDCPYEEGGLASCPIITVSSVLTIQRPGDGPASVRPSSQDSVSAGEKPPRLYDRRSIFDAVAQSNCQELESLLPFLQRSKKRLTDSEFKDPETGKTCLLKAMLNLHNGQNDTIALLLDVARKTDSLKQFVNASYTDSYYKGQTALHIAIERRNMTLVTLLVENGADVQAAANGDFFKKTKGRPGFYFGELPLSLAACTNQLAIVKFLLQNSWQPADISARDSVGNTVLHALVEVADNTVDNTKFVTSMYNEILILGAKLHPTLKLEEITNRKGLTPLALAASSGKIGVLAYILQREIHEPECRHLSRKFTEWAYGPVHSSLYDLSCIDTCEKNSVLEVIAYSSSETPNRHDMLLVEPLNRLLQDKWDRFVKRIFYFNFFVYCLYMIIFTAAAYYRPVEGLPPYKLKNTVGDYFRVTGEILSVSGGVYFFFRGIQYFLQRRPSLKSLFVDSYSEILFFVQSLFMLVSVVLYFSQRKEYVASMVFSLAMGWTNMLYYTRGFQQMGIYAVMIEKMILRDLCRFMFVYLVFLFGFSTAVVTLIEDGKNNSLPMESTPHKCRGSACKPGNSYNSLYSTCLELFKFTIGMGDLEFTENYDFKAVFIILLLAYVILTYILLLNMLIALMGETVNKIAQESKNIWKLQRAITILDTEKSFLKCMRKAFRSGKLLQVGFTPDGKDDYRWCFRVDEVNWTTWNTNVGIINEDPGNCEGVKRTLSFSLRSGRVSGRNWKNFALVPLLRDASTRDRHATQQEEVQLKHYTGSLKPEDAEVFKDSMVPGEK
Description: 1) Separation of Spinal Dorsal Root Ganglia (DRG) in Newborn Rats and Primary Culture Thereof
Neonatal (2-3 day old or younger than 2-3 day old) SD rats were put in ice for 5 minutes to anesthetize and disinfected with 70% ethanol. […] The DRG were incubated sequentially at 37° C. for 30 min in 200 U/ml collagenase and 2.5 mg/ml trypsin, separately. The ganglia were washed twice with DME/F12 medium supplemented with 10% horse serum, triturated through a fire-polished Pasteur pipette, filtered through Nitex 80 membrane to obtain single cell suspension and the suspension was washed once more. This was subjected to centrifugation, then resuspended in cell culture medium at certain level of cell density. As the cell culture medium, DME/F12 medium supplemented with 10% horse serum was diluted with identical medium conditioned by C6 glioma cells 2 days on a confluent monolayer (1:1), and NGF (Nerve Growth Factor) was added to adjust 200 ng/ml as final concentration. After the cells were grown 2 days in medium where cytosine arabinoside (Ara-C, 100 μM) was added to kill dividing nonneuronal cells, medium was changed to one without Ara-C. The resuspended cells were plated at a density of 1500-2000 neurons/well onto Terasaki plates previously coated with 10 μg/ml poly-D-ornithine.
2) ^45Ca Influx Experiments
DRG nerve cells from the primary culture of 2 days were equilibrated by washing 4 times with HEPES (10 mM, pH 7.4)-buffered Ca^2+, Mg^2+-free HBSS (H—HBSS). The solution in each well was removed from the individual well. Medium containing the test compound plus capsaicin (final concentration 0.5 μM) and ^45Ca (final concentration 10 μCi/ml) in H—HBSS was added to each well and incubated at room temperature for 10 mins. Terasaki plates were washed five times with H—HBSS and dried at room temperature. To each well, 0.3% SDS (10 μl) was added to elute ^45Ca. After the addition of scintillation cocktail of into each well, the amount of ^45Ca influx into neuron was measured by counting radioactivity.

Structure (SMILES) | IC50 [nM]
C=Cc1cc(CNC(=O)/C=C/c2ccc(C(C)(C)C)cc2N2CCOCC2)cc(F)c1NS(C)(=O)=O [Example 22, 3-(4-tert-Butyl-2-morpholin-4-yl-phenyl)-N-(3-fluoro-4-methanesulfonylamino-5-vinylbenzyl)acrylamide] | 250
C=Cc1cc([C@@H](C)NC(=O)NCc2ccc(C(C)(C)C)cc2)cc(F)c1NS(C)(=O)=O [Example 7, (R)—N-(4-{1-[3-(4-tert-Butyl-benzyl)-ureido]-ethyl}-2-fluoro-6-vinyl-phenyl)-methanesulfonamide] | 39
C=Cc1cc(CNC(=O)/C=C/c2ccc(C(C)(C)C)cc2OCCOC)cc(F)c1NS(C)(=O)=O [Example 23, 3-[4-tert-Butyl-2-(2-methoxy-ethoxy)-phenyl]-N-(3-fluoro-4-methanesulfonylamino-5-vinyl-benzyl)-acrylamide] | 67
C=Cc1cc(CNC(=O)/C=C/c2ccc(C(C)(C)C)cc2NCCOC)cc(F)c1NS(C)(=O)=O [Example 27, 3-[4-tert-Butyl-2-(2-methoxyethylamino)phenyl]-N-(3-fluoro-4-methanesulfonylamino-5-vinylbenzyl)acrylamide] | 76
C=Cc1cc([C@@H](C)NC(=O)/C=C/c2ccc(C(C)(C)C)cc2)cc(F)c1NS(C)(=O)=O [Example 36, (R)-3-(4-tert-Butylphenyl)-N-[1-(3-fluoro-4-methanesulfonylamino-5-vinylphenyl)ethyl]acrylamide] | 54
C#Cc1cc(CNC(=O)NCc2ccc(C(C)(C)C)cc2)cc(F)c1NS(C)(=O)=O [Example 3, N-{4-[3-(4-t-butylbenzyl)ureidomethyl]-2-ethynyl-6-fluorophenyl}methanesulfonamide] | 180
C=Cc1cc(CNC(=O)/C=C/c2ccc(C(C)(C)C)cc2OC2CCOCC2)cc(F)c1NS(C)(=O)=O [Example 40, 3-[4-tert-Butyl-2-(tetrahydropyran-4-yloxy)phenyl]-N-(3-fluoro-4-methanesulfonylamino-5-vinylbenzyl)acrylamide] | 290
C#Cc1cc([C@@H](C)NC(=O)Nc2ccc(C(C)(C)C)cc2)ccc1NS(C)(=O)=O [Example 55, (R)—N-(4-{1-[3-(4-tert-Butylphenyl)ureido]ethyl}-2-ethynylphenyl)methanesulfonamide] | 170
C=Cc1cc(CNC(=O)C(C)Cc2ccc(C(C)(C)C)cc2)cc(F)c1NS(C)(=O)=O (stereo not drawn) [Example 43, 3-(4-tert-Butylphenyl)-N-(3-fluoro-4-methanesulfonylamino-5-vinylbenzyl)-2-methylpropionamide] | 67
C=Cc1cc([C@@H](C)NC(=O)Nc2ccc(C(C)(C)C)cc2)ccc1NS(C)(=O)=O [Example 53, (R)—N-(4-{1-[3-(4-tert-Butylphenyl)ureido]ethyl}-2-vinylphenyl)methanesulfonamide] | 99
C=Cc1cc(CNC(=O)/C=C/c2ccc(C(C)(C)C)cc2NC(C)C)cc(F)c1NS(C)(=O)=O [Example 34, 3-(4-tert-Butyl-2-isopropylaminophenyl)-N-(3-fluoro-4-methanesulfonylamino-5-vinylbenzyl)acrylamide] | 170
C=Cc1cc([C@@H](C)NC(=O)/C(C)=C/c2ccc(C(C)(C)C)cc2)ccc1NS(C)(=O)=O [Example 42, (R)-3-(4-tert-Butylphenyl)-N-[1-(4-methanesulfonylamino-3-vinylphenyl)ethyl]-2-methylacrylamide] | 22
C=Cc1cc(CNC(=O)NCc2ccc(C(C)(C)C)cc2)ccc1NS(C)(=O)=O [Example 1, N-{4-[3-(4-t-butylbenzyl)ureidomethyl]-2-vinylphenyl}methanesulfonamide] | 160
C=Cc1cc(CNC(=O)/C=C/c2ccc(C(C)(C)C)cc2OC)cc(F)c1NS(C)(=O)=O [Example 28, 3-(4-tert-Butyl-2-methoxyphenyl)-N-(3-fluoro-4-methanesulfonylamino-5-vinyl-benzyl)acrylamide] | 73
C=Cc1cc([C@@H](C)NC(=O)C#Cc2ccc(C(C)(C)C)cc2)cc(F)c1NS(C)(=O)=O [Example 13, 3-(4-tert-Butylphenyl)propynoic acid N-[1-(3-fluoro-4-methanesulfonylamino-5-vinylphenyl)ethyl]amide] | 150
C=Cc1cc(CNC(=O)/C=C/c2ccc(C(C)(C)C)cc2NCCC(C)C)cc(F)c1NS(C)(=O)=O [Example 32, 3-[4-tert-butyl-2-(3-methylbutylamino)phenyl]-N-(3-fluoro-4-methanesulfonylamino-5-vinylbenzyl)acrylamide] | 490
C#Cc1cc(CNC(=O)CCc2ccc(C(C)(C)C)cc2)cc(F)c1NS(C)(=O)=O [Example 47, 3-(4-tert-butyl-phenyl)-N-(3-ethynyl-5-fluoro-4-methanesulfonylamino-benzyl)-propionamide] | 170
C=Cc1cc(CNC(=O)/C(F)=C/c2ccc(C(C)(C)C)cc2)cc(F)c1NS(C)(=O)=O [Example 38, 3-(4-tert-Butylphenyl)-2-fluoro-N-(3-fluoro-4-methanesulfonylamino-5-vinylbenzyl)acrylamide] | 270
C=Cc1cc(CNC(=O)/C=C/c2ccc(C(C)(C)C)cc2)cc(Cl)c1NS(C)(=O)=O [Example 21, 3-(4-tert-Butylphenyl)-N-(3-chloro-4-methanesulfonylamino-5-vinylbenzyl)acrylamide] | 160
C=Cc1cc(CNC(=O)/C(C)=C/c2ccc(C(C)(C)C)cc2)cc(F)c1NS(C)(=O)=O [Example 37, 3-(4-tert-Butylphenyl)-N-(3-fluoro-4-methanesulfonylamino-5-vinylbenzyl)-2-methylacrylamide] | 49
C#Cc1cc(CNC(=O)NCc2ccc(C(C)(C)C)cc2)c(Cl)cc1NS(C)(=O)=O [Example 5, N-{4-[3-(4-t-butylbenzyl)ureidomethyl]-5-chloro-2-ethynylphenyl}methanesulfonamide] | 490
C=Cc1cc(CNC(=O)NCc2ccc(C(C)(C)C)cc2)cc(C)c1NS(C)(=O)=O [Example 8, N-{4-[3-(4-tert-Butyl-benzyl)-ureidomethyl]-2-methyl-6-vinyl-phenyl}-methanesulfonamide] | 310
C=CCOc1cc(C(C)(C)C)ccc1/C=C/C(=O)NCc1cc(F)c(NS(C)(=O)=O)c(C=C)c1 [Example 30, 3-(2-Allyloxy-4-tert-butylphenyl)-N-(3-fluoro-4-methanesulfonylamino-5-vinylbenzyl)acrylamide] | 68
C=Cc1cc([C@@H](C)NC(=O)CCc2ccc(C(C)(C)C)cc2)cc(F)c1NS(C)(=O)=O [Example 35, (R)-3-(4-tert-Butylphenyl)-N-[1-(3-fluoro-4-methanesulfonylamino-5-vinylphenyl)ethyl]propionamide] | 33
C=Cc1cc(CNC(=O)C#Cc2ccc(C(C)(C)C)cc2)cc(F)c1NS(C)(=O)=O [Example 12, 3-(4-tert-Butylphenyl)propynoic acid 3-fluoro-4-methanesulfonylamino-5-vinylbenzylamide] | 87
C=Cc1cc([C@@H](C)NC(=O)Nc2ccc(C(C)(C)C)cc2)ccc1NS(=O)(=O)C=C [Example 58, Ethenesulfonic Acid (4-{1-[3-(4-tert-butylphenyl)ureido]ethyl}-2-vinylphenyl)amide] | 450
C=Cc1cc(CNC(=O)NCc2ccc(C(C)(C)C)cc2)cc(Cl)c1NS(C)(=O)=O [Example 9, N-{4-[3-(4-tert-Butyl-benzyl)-ureidomethyl]-2-chloro-6-vinyl-phenyl}-methanesulfonamide] | 130
C=Cc1cc([C@@H](C)NC(=O)C#Cc2ccc(C(C)(C)C)cc2)ccc1NS(C)(=O)=O [Example 11, 3-(4-t-butylphenyl)-N-[1-(R)-(4-methanesulfonylamino-3-vinylphenyl)ethyl]propiolicamide] | 79
C=Cc1cc(CNC(=O)NCc2ccc(C(C)(C)C)cc2)c(Cl)cc1NS(C)(=O)=O [Example 4, N-{4-[3-(4-t-butylbenzyl)ureidomethyl]-5-chloro-2-vinylphenyl}methanesulfonamide] | 170
C=Cc1cc(CNC(=O)Nc2ccc(C(C)(C)C)cc2)cc(F)c1NS(C)(=O)=O [Example 57, N-{4-[3-(4-tert-Butylphenyl)ureidomethyl]-2-fluoro-6-vinylphenyl}methanesulfonamide] | 500
